Measured values as given in patent publication US20050282208A1, “Cellular phenotype” (Cytokinetics, Inc., priority 2004, published 2005).

What was measured:
SKOV3 cells [1] = experiment: Image analysis of treated SKOV3 cells: mitotic index and interphase phenotype distance from control; format: cell-based
SKOV3 cells [2] = experiment: as above; format: cell-based; settings: for Impact on mitotic index / Impact on interphase features (combined distance from normal interphase phenotype): FIG. 5A, multiple concentrations; for Impact on mitotic index: 40 uM maximum; for Impact on interphase features (combined distance from normal interphase phenotype): 40 uM maximum (Taxol 0.8 uM maximum)
Excerpt: In one specific example, a particular group of cellular features for characterizing the interphase phenotype of a cell could include, for all cells that are not mitotic: • the average size of cell nuclei; • the average elliptical axis ratio for nuclei; • the average kurtosis intensity of cells; • the average pixel intensity for Golgi apparatus in cells; • the average cell area; • the elliptical axis ratio for cells; • the form factor (area divided by perimeter) for cells; • the kurtosis of the intensity of tubulin; • the second moment of a cell; • the average total intensity of tubulin for each cell; • the proportion of branched (i.e. having projections) cells.
In one embodiment, after each cellular feature has been characterized, and similarly for the control group cellular features, a distance in multivariate space may be calculated. This can be the distance from a normal interphase phenotype as presented in the horizontal axis of FIG. 5A (described below). For the purposes of simplicity of discussion, if it is assumed that there are only three cellular features (a, b, c) comprising the interphase phenotype signature, and where the subscript ‘t’ refers to a feature of a treated cell and the subscript ‘c’ refers to a feature of a control cell, then the distance (L1) in multivariate space between the interphase signature of the treated cells and interphase signature of the control cells can be calculated as L1=|at−ac|+|bt−bc|+|ct−cc|, which provides the interphase metric.
FIG. 5A presents data showing that certain compounds producing the rice phenotype have very little effect on phenotypic features of interphase cells. In FIG. 5A, the vertical axis presents mitotic index, which is a measure of a compound's ability to cause mitotic arrest (thereby its ability to have a profound effect on the phenotype of mitotic cells), and the horizontal axis presents a “combined distance” from a normal interphase phenotype. The combined distance takes into account various features that characterize interphase phenotype, including those described above (i.e., the average size of cell nuclei, the average elliptical axis ratio for nuclei, the average kurtosis intensity of cells, etc.) Greater values on the horizontal axis indicate greater deviations from a control phenotype for interphase cells.
FIG. 5B is a profile graph showing that the interphase cells treated with rice compounds track interphase control cells for various interphase phenotypic features. These features include, as shown on the horizontal axis, the relative number of objects (putative cells), the average area occupied by DNA in the objects (presumably nuclei), the average axes ratio of the DNA regions in the objects, the average kurtosis of the Golgi regions, the mean intensity of the Golgi regions, average area encompassed by tubulin in the objects, the average axes ratio of tubulin in the objects, the average kurtosis of the tubulin regions, the average form factor of the tubulin regions, the average moment of the tubulin regions, the average total intensity of tubulin in each object, and the branching properties of the tubulin in the objects. Note that the cells used to generate this graph were treated with markers for Golgi (LC for labeled LC Lectin), DNA (HO for Hoechst stain), and tubulin (DM for labeled DM1-α). As shown, the rice features closely track those of the DMSO treated cells and diverge strongly from the interphase cells of Taxol treated cells.
The data of FIG. 5B were obtained by treating SKOV3 cells with many different compounds and then capturing the interphase characteristics shown in the horizontal axis using image analysis techniques. The concentration of each compound was chosen by determining what concentration of a compound produced a mitotic index between 14 and 17% after cells were treated at multiple concentrations and then imaged to capture Golgi, tubulin, and DNA data for the interphase features shown in FIG. 5B. […]

SKOV3 cells [3] = experiment: Mitotic spindle length in tubulin marker images of SKOV3 cells; format: cell-based
Excerpt: In accordance with this invention, the length of a bipolar mitotic spindle may be measured as the separation distance between the spindle poles. To make such measurement, mitotic spindles are observed by a suitable technique such as one that employs a marker for a specific component of the spindle. For example, the technique may involve treating cells with a marker for tubulin and then imaging them under conditions that illuminate such marker. This facilitates automated identification of the mitotic spindle and measurement of its length using image analysis algorithms. […]
The data in this table was obtained for SKOV3 cells (ovarian cancer cell line) treated with DMSO (control) and a compound that produces the rice phenotype. […] In the table, “n” is the number of cells that were analyzed to generate a mean length in micrometers as indicated and associated standard deviation. Spindle lengths were measured manually in this example.
Manual measurements were taken from one image each of DMSO, rice compound 4-(3-Bromo-4-hydroxy-5-methoxy-phenyl)-6-methyl-2-oxo-1,2,3,4-tetrahydro-pyrimidine-5-carboxylic acid 1,2,2-trimethyl-propyl ester at 40 uM, and a mitotic kinesin inhibitor at 40 uM using MetaMorph Imaging Software. Lines were drawn between what was manually determined to be the ends of the mitotic spindle. […]

A549 cells = experiment: Cell line specificity: mitotic index, number of objects and rice phenotype in A549 cells; format: cell-based, human; settings: wide range of concentrations, FIG. 7A
Excerpt: (§1) But it is apparently immune to all anti-mitotic agents.
(§2) As shown, the discrepancy exists over a wide range of concentrations. The two effects depicted in FIG. 7A are number of objects (a measure of the compound's cell killing strength) and mitotic index (fraction of the cells in a population that are in the mitotic phase).

DU145 cells = experiment: Cell line specificity: mitotic index, number of objects and rice phenotype in DU145 cells; format: cell-based
Protocol: as §1, §2
FIG. 7B compares phenotypes of DU145 cells that were treated with 4-(3-Bromo-4-hydroxy-5-methoxy-phenyl)-6-methyl-2-oxo-1,2,3,4-tetrahydro-pyrimidine-5-carboxylic acid 1,2,2-trimethyl-propyl ester (top panel) to phenotypes of DU145 cells that were treated with a different compound (bottom panel). […] Note that the other compound produces a phenotype bearing some resemblance to the rice phenotype in SKOV3 cells. Specifically, it produces mitotic spindles that are somewhat elongated. […] This was not observed with the other compound.

60 cell lines = settings: NCI panel data; cited from earlier work
[4] = SK0V3 cell line, wide range of concentrations, FIG. 7A
[5] = wide range of concentrations, FIG. 7A

| SMILES | Organization of nuclear DNA in interphase cells compared to control (SKOV3 cells [1]; 40 uM for 24 hours, GFP-Histone, FIG. 6A) | Impact on mitotic index (SKOV3 cells [2]) | Impact on interphase features (combined distance from normal interphase phenotype) (SKOV3 cells [2]) | Mitotic spindle length compared to control cells (SKOV3 cells [3]; 40 uM for 24 hours, control 0.4% DMSO, FIG. 2A) | Effect on cell number (number of objects) (A549 cells) | Effect on mitotic index (A549 cells) | Effect on cell number (number of objects) (SKOV3 cells [1]; [4]) | Effect on mitotic index (SKOV3 cells [1]; [4]) | Induction of the rice phenotype (SKOV3 cells [1]; SKOV3 cells) | Induction of the rice phenotype (DU145 cells; tubulin staining, FIG. 7B) | Effect on cell number (number of objects) (DU145 cells; [5]) | Effect on mitotic index (DU145 cells; [5]) | Potency differences between cell types (60 cell lines) | Interphase phenotypic features profile compared to control (SKOV3 cells [2]; FIG. 5B, SKOV3 cells, concentrations inducing approximately 15% mitotic arrest) | Production of elongated metaphase spindles (SKOV3 cells [3]) |
| --- | --- | --- | --- | --- | --- | --- | --- | --- | --- | --- | --- | --- | --- | --- | --- |
| COc1cc(C2NC(=O)N(C)C(C)=C2C(=O)OC2CCCC2)cc(Br)c1O (centres unmarked) [4-(3-Bromo-4-hydroxy-5-methoxy-phenyl)-1,6-dimethyl-2-oxo-1,2,3,4-tetrahydro-pyrimidine-5-carboxylic acid cyclopentyl ester] | similarly organized in rice interphase cells as it is in normal interphase cells | significant impact on mitotic index | minimal impact on interphase features | significantly longer than spindles in normal cells |  |  |  |  |  |  |  |  |  |  |  |
| COc1cc(C2NC(=O)NC(C)=C2C(=O)OC(C)C(C)(C)C)cc(Br)c1O (centres unmarked) [4-(3-Bromo-4-hydroxy-5-methoxy-phenyl)-6-methyl-2-oxo-1,2,3,4-tetrahydro-pyrimidine-5-carboxylic acid 1,2,2-trimethyl-propyl ester] |  | significant impact on mitotic index | minimal impact on interphase features |  | limited effect | limited effect | significant affects | significant affects | clearly manifest | produces a rice phenotype | significant affects | significant affects |  |  |  |
| CC(=O)O[C@H]1C(=O)[C@@]2(C)[C@H]([C@H](OC(=O)c3ccccc3)[C@]3(O)C[C@H](OC(=O)[C@H](O)[C@@H](NC(=O)c4ccccc4)c4ccccc4)C(C)=C1C3(C)C)[C@]1(OC(C)=O)CO[C@@H]1C[C@@H]2O [Taxol, reference compound] |  |  | widely separated from the control interphase phenotype |  | robust response | robust response |  |  |  |  |  |  | over 3 orders of magnitude | vary to a greater degree | do not produce elongated metaphase spindles |
